Data taken from the NIST ThermoML archive (doi:10.1021/je400531a).
“And” between values parts separate entries of the source, which are not always exact repeats. Equal entries are not always repeated.

What was measured:
[1] = refractive index (Na D-line) (dimensionless); conditions: 293.15 K; 101.33 kPa; Liquid; Standard Abbe refractometry
[2] = Liquid; for mass density: 293.15 K, 101.33 kPa, Vibrating tube method; for vapor or sublimation pressure: Ebulliometric method (Recirculating still)

CC#N [acetonitrile]
Conditions	mass density [kg/m3]	refractive index
[1]	–	1.3425
[2]	782	–

[2]
Conditions	vapor or sublimation pressure
307.22 K	18.08 kPa
311.3 K	21.45 kPa
314.05 K	24 kPa
316.73 K	26.73 kPa
320.8 K	31.35 kPa
323.52 K	34.82 kPa
325.8 K	37.88 kPa
328.95 K	42.59 kPa
330.5 K	45.06 kPa
333.02 K	49.34 kPa
335.2 K	53.31 kPa
338.45 K	59.68 kPa
341.17 K	65.47 kPa
343.43 K	70.59 kPa
346.6 K	78.43 kPa
350.67 K	89.46 kPa
354.75 K	101.64 kPa and 101.3 kPa

C[S+](C)[O-] [dimethyl sulfoxide]
Conditions	mass density [kg/m3]	refractive index
[1]	–	1.4751
[2]	1101	–

[2]
Conditions	vapor or sublimation pressure
401.95 K	15.28 kPa
405.11 K	17.11 kPa
408.75 K	19.42 kPa
411.45 K	21.32 kPa
414.6 K	23.72 kPa
419.36 K	27.76 kPa
421.15 K	29.41 kPa
424.1 K	32.35 kPa
430.45 K	39.43 kPa
433.59 K	43.43 kPa
436.75 K	47.75 kPa
439.92 K	52.42 kPa
442.85 K	57.05 kPa
447.83 K	65.75 kPa
455.74 K	81.72 kPa
463.43 K	101.3 kPa
463.45 K	100.76 kPa and 101.3 kPa

O [water]
Conditions	refractive index
[1]	1.3312

[2]
Conditions	vapor or sublimation pressure
320.37 K	10.74 kPa
324.33 K	13.09 kPa
326.63 K	14.66 kPa
328.29 K	15.86 kPa
333.57 K	20.33 kPa
340.16 K	27.37 kPa
343.85 K	32.16 kPa
345.44 K	34.4 kPa
347.83 K	38.07 kPa
349.4 K	40.62 kPa
351.8 K	44.82 kPa
354.68 K	50.37 kPa
358.64 K	58.91 kPa
361.08 K	64.72 kPa
362.59 K	68.63 kPa
367.87 K	83.63 kPa
373.15 K	101.31 kPa and 101.3 kPa
